Test results reported in patent EP2108954A1, “A test system for detecting intracellular cyclic nucleotide level and methods and uses thereof” (Max-Planck-Gesellschaft zur Förderung der Wissenschaften …, priority 2008, dated 2009).

Key:
hHCN2 = assay: Gs coupling test: hHCN2 current in HEK293 cells coexpressing ORs and hHCN2; type: cell-based, human; conditions: 2 min 100 nM Etb; Or22a, Or83b and hHCN2 coexpressed
Method: HEK293 cells were cultured as described by Wicher and colleagues (Wicher et al., J. Biol. Chem. 281, 3227-36 (2006)). In brief, HEK293 cells were cultured at a density of ∼2*10^4 per 35-mm dish and transfected with 1 µg pcDNA3-DOR22a-GFP and 1 µg pcDNA3-DOR83b-GFP (Neuhaus, et al., Nat. Neurosci. 8, 15-17 (2005); DNAs were a generous gift of Dr. E. Neuhaus and Dr. H. Hatt) using Roti-Fect transfection kit (Roth, Karlsruhe, Germany). In some experiments we transfected cells with pcDNA3-DOR22a-GFP or pcDNA3-DOR83b-GFP alone. We also examined the properties of DOR47a, which was cloned, using standard molecular biology methods into a pcDNA3.1(-) expression vector. To test for putative G-protein coupling, cells were transfected with the respective OR-DNA together with 1.5 µg hHCN2/pcDNA3 (provided by M. Biel, Munich, Germany), with 1 µg hKCNQ4/pcDNA3.1 or with 1 µg hCNGA2/pCMV6-XL4 (Origene, Rockville, MD, USA).
Ion currents in HEK293 cells were measured with the patch-clamp technology as described (Wicher et al, J. Biol. Chem. 281, 3227-36 (2006)). In brief, ion currents in HEK293 cells were measured at room temperature using whole-cell patch-clamp with appropriate compensation of series resistance and of capacitive currents. Additional experiments were performed in the outside-out configuration. […]

hCNGA2 = assay: Calcium imaging (fura-2) in HEK293 cells expressing hCNGA2 and Or22a; type: cell-based, human; conditions: most prominent near the plasma membrane (Fig. 5d)
Method: Free intracellular Ca^2+ concentration ([Ca^2+]i) was determined by fura-2 fluorescence as described (Messutat et al., Cell Calcium 30, 199-211. (2001)). In brief, cells were loaded with fura-2 by incubation in bath solution containing 2 µM fura-2/acetomethylester for 20 min. Free intracellular Ca^2+ concentration ([Ca^2+]i) was determined with the fluorescence ratio method. Excitation of fura-2 at 340 and 380 nm was performed with a monochromator (Polychrome II, T.I.L.L. Photonics, Gräfelfing, Germany) coupled via an epifluorescence condenser into an Axioskop FS microscope (Carl Zeiss, Jena, Germany) with a water immersion objective (LUMPFL 40xW/IR/0.8; Olympus, Hamburg, Germany). […] [Ca^2+]i was calculated according to the equation [Ca^(2 +)]i = Keff (R-Rmin)/(Rmax-R). […] Keff, Rmin, and Rmax were determined using HEK293 cells permeabilized with 2 µM ionomycin and three solutions with different concentrations of free Ca^2+ (Ca^2+ free; 5 mM Ca^2+; 500 nM Ca^2+; the composition of the 500 nM solution was calculated with WEBMAXC v.2.20) (Patton et al., Cell Calcium 35, 427-31 (2004)). […]
Fluorescence images were acquired using a cooled CCD camera controlled by TILLVision 4.0 software (T.I.L.L. Photonics). […] Image pairs were obtained by excitation for 100 ms at 340 nm and 380 nm; background fluorescence was subtracted.

CCCC(=O)OCC [Etb, ethyl butyrate]
effect on hHCN2 current time course (hHCN2): accelerated the current time course | [Ca^2+]i (hCNGA2): produced an increase in [Ca^2+]i
